Laboratory results as given in US20210330611A1, “THERAPY FOR NEUROLOGICAL DISEASES/DISORDERS” (priority 2020, published 2021).
Like-named read-outs stand apart in the source and are kept apart here.

Assays:
[1] = tested on: fibrin-induced microglia activation; experiment: Image-based assay of fibrin-induced microglia activation (HTS and dose response); format: cell-based, rat; details: for inhibition at 10 µM: Rattus norvegicus, Microglia, read-out: Fibrin % inhibition
[2] = tested on: LPS-induced microglia activation; experiment: Image-based assay of LPS-induced microglia activation (HTS and dose response); format: cell-based, rat; details: for inhibition at 10 µM: Rattus norvegicus, Microglia, read-out: LPS % inhibition
[3] = tested on: fibrin- and LPS-induced microglia activation; experiment: cells; format: cell-based, rat
[4] = tested on: primary rat microglia; experiment: Cell toxicity (dead cells, size <150 μm2) in LPS assay
[5] = tested on: primary rat microglia; experiment: Cell toxicity (dead cells, size <150 μm2) in coated fibrin (cFib) assay;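 also: share of dead cells sized under 150 µm2 at 10 µM in fibrin-stimulated microglia HTS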
[6] = primary microglia HTS, fibrin stimulation, increased cell size (>800 μm^2) as marker of activation
[7] = 48 h, primary microglia HTS, LPS stimulation, increased cell size (>800 μm^2) as marker of activation
[8] = quadrant by fibrin and LPS inhibition in HTS of 1907 compounds
[9] = primary microglia HTS, LPS stimulation, decreased size (<150 μm^2) as marker of toxicity
[10] = primary microglia HTS, fibrin stimulation, decreased size (<150 μm^2) as marker of toxicity
[11] = primary HTS, 10 μM, fibrin-stimulated primary microglia
[12] = primary HTS, 10 μM, LPS-stimulated primary microglia
[13] = primary HTS, 10 μM, LPS assay, dead cells size <150 μm2
[14] = primary HTS, 10 μM, fibrin assay, dead cells size <150 μm2
[15] = primary microglia HTS, 10 μM, fibrin-stimulated, cell size >800 μm^2 as marker of activation
[16] = primary microglia HTS, 10 μM, LPS-stimulated, cell size >800 μm^2 as marker of activation
[17] = HTS of 1907 compounds, quadrant by fibrin and LPS inhibition
[18] = primary microglia HTS, 10 μM, LPS assay, cell size <150 μm^2 as marker of toxicity
[19] = primary microglia HTS, 10 μM, fibrin assay, cell size <150 μm^2 as marker of toxicity
[20] = primary microglia HTS, fibrin stimulation, activation = cell size >800 μm2
[21] = primary microglia HTS, LPS stimulation, activation = cell size >800 μm2
[22] = primary microglia HTS, LPS stimulation, toxicity = cell size <150 μm2
[23] = primary microglia HTS, fibrin stimulation, toxicity = cell size <150 μm2

Molecule: CCCCCCCC/C=C\CCCCCCCC(=O)O [Oleic Acid]
- inhibition at 10 µM [1, 6]: 23%
- inhibition at 10 µM [2, 7]: 25%
- Quadrant (FIG. 5b) [3, 8]: Q4
- LPS % cell toxicity [4, 9]: 1%
- Fibrin % cell toxicity [5, 10]: 1%

Molecule: O=C(O)c1ccc[n+]([O-])c1 [Oxiniacic Acid]
- inhibition at 10 µM [1, 6]: -6%
- inhibition at 10 µM [2, 7]: 12%
- Quadrant (FIG. 5b) [3, 8]: Q4
- LPS % cell toxicity [4, 9]: 0%
- Fibrin % cell toxicity [5, 10]: 1%

Molecule: CC(C)/N=c1\cc2n(-c3ccc(Cl)cc3)c3ccccc3nc-2cc1Nc1ccc(Cl)cc1 [Clofazimine]
- inhibition at 10 µM [1, 11]: 23%
- inhibition at 10 µM [2, 12]: 15%
- Quadrant (FIG. 5b) ([3]; primary HTS, 10 μM): Q4
- LPS % cell toxicity [4, 13]: 0%
- Fibrin % cell toxicity [5, 14]: 1%

Molecule: CN1C(=O)OC(C)(C)C1=O [Trimethadione]
- inhibition at 10 µM [1, 15]: -5%
- inhibition at 10 µM [2, 16]: 14%
- Quadrant (FIG. 5b) [3, 17]: Q4
- LPS % cell toxicity [4, 18]: 0%
- Fibrin % cell toxicity [5, 19]: 1%

Molecule: Oc1c(I)cc(Cl)c2cccnc12 [Clioquinol]
- inhibition at 10 µM [1, 11]: -11%
- inhibition at 10 µM [2, 12]: 22%
- Quadrant (FIG. 5b) ([3]; primary HTS, 10 μM): Q4
- LPS % cell toxicity [4, 13]: 1%
- Fibrin % cell toxicity [5, 14]: 1%

Molecule: O=c1[nH]c(=O)c2ccccc2o1 [Carsalam]
- inhibition at 10 µM [1, 11]: -7%
- inhibition at 10 µM [2, 12]: 11%
- Quadrant (FIG. 5b) ([3]; primary HTS, 10 μM): Q4
- LPS % cell toxicity [4, 13]: 1%
- Fibrin % cell toxicity [5, 14]: 0%

Molecule: CC1COc2c(N3CCN(C)CC3)c(F)cc3c(=O)c(C(=O)O)cn1c23 (stereo not shown) [Ofloxacin]
- inhibition at 10 µM [1, 6]: -13%
- inhibition at 10 µM [2, 7]: 16%
- Quadrant (FIG. 5b) [3, 8]: Q4
- LPS % cell toxicity [4, 9]: 0%
- Fibrin % cell toxicity [5, 10]: 1%

Molecule: NS(=O)(=O)Cc1noc2ccccc12 [Zonisamide]
- inhibition at 10 µM [1, 15]: -37%
- inhibition at 10 µM [2, 16]: -12%
- Quadrant (FIG. 5b) [3, 17]: Q4
- LPS % cell toxicity [4, 18]: 0%
- Fibrin % cell toxicity [5, 19]: 0%

Molecule: C[C@@H]1O[C@@H]1P(=O)(O)O [Fosphomycin]
- Fibrin % inhibition [1, 20]: 4%
- LPS % inhibition [2, 21]: 12%
- Quadrant (FIG. 5b) [3, 8]: Q4
- LPS % cell toxicity [4, 22]: 0%
- Fibrin % cell toxicity [5, 23]: 1%

Molecule: Cc1noc(NS(=O)(=O)c2ccc(N)cc2)c1C [Sulfisoxazole]
- inhibition at 10 µM [1, 15]: -11%
- inhibition at 10 µM [2, 16]: 6%
- Quadrant (FIG. 5b) [3, 17]: Q4
- LPS % cell toxicity [4, 18]: 0%
- Fibrin % cell toxicity [5, 19]: 0%

Molecule: O=C(O)Cc1cc(I)c(Oc2ccc(O)c(I)c2)c(I)c1 [Tiratricol]
- inhibition at 10 µM [1, 15]: -51%
- inhibition at 10 µM [2, 16]: 13%
- Quadrant (FIG. 5b) [3, 17]: Q4
- LPS % cell toxicity [4, 18]: 0%
- Fibrin % cell toxicity [5, 19]: 1%

Molecule: CC/C=C\C/C=C\C/C=C\C/C=C\C/C=C\CCCC(=O)OCC [Icosapent ethyl]
- inhibition at 10 µM [1, 20]: -13%
- inhibition at 10 µM ([2]; 48 h, primary microglia HTS, LPS stimulation, activation = cell size >800 μm2): 1%
- Quadrant (FIG. 5b) [3, 8]: Q4
- LPS % cell toxicity [4, 22]: 0%
- Fibrin % cell toxicity [5, 23]: 0%

Molecule: Chiniofon
- Fibrin % inhibition [1, 11]: −52%
- LPS % inhibition [2, 12]: −1%
- Quadrant (FIG. 5b) ([3]; primary HTS, 10 μM): Q4
- LPS % cell toxicity [4, 13]: 1%
- Fibrin % cell toxicity [5, 14]: 1%

Molecule: Nc1nc(=O)[nH]cc1F [Flucytosine, 5-fluorocytosine]
- Fibrin % inhibition [1, 20]: 13%
- LPS % inhibition [2, 21]: 17%
- Quadrant (FIG. 5b) [3, 8]: Q4
- LPS % cell toxicity [4, 22]: 1%
- Fibrin % cell toxicity [5, 23]: 1%
